Test results published in patent US6599933B2, “Tocotrienol derivative, process for producing the same and γ-CEHC delivering agent” (Kenko Corporation, priority 2000, dated 2003).

Experiments:
[1] = racemic γ-CEHC administered to SD rat intravenously; cited from earlier work
[2] = Animal Test Example 1: kinetics in rat after intravenous administration (plasma, liver, heart, kidney); parameters: species or system SD rat; conditions: in vivo, 25 mg/kg
Description: 1) SD male rats (weighing 260-285 g) were used while a diet was changed to crystal sugar from 16 hours before drug administration. d-α-T3DMA (Example 5), d-γ-T3DMA (Example 6), d-α-tocotrienol (hereinafter, d-α-T3), or d-γ-tocotrienol (hereinafter, d-γ-T3) was administered into left femoral vein under slight anesthesia. A solution of d-α-T3DMA or d-γ-T3DMA to be administered was used by dissolving it in distilled water containing 10% propylene glycol, and filtering with membrane filter (0.22 μm). A solution of d-α-T3 and d-γ-T3 to be administered was used by dissolving it using a nonionic surfactant HCO-60. Administration amounts were set to be tocotrienol equivalent 25 mg/kg, respectively. 0.25, 0.5, 1, 2, 4, 8 and 24 hours after administration, blood was taken under ether anesthesia, and liver, heart and kidney were taken. Plasma was rapidly separated and taken. A 1.15% potassium chloride solution was added at a 3-fold amount of each organ weight was added thereto, which was homogenated. 0.7 ml of ethanol was added to 0.2 ml of each sample, the mixture was stirred for 2 minutes, centrifuged, and the supernatant was analyzed by the aforementioned HPLC.

[3] = Hydrolyzability test in rat liver microsome solution; assay type: in vitro ADME
Description: (§1) d-α-tocotrienol N,N-dimethylaminoacetate hydrochloride (Example 5:hereinafter, d-α-T3DMA), d-α-tocotrienol N-methylaminoacetate hydrochloride (Example 2:hereinafter, d-α-T3MA), d-γ-tocotrienol N,N-dimethylaminoacetate hydrochloride (Example 6:hereinafter, d-γ-T3DMA), d-γ-tocotrienol N-methylaminoacetate hydrochloride (Example 4:hereinafter, d-γ-T3MA), or d-γ-tocotrienolaminoacetate hydrochloride (Example 3:hereinafter, d-γ-T3AA) were added to a solution of SD rat liver microsome and rat plasma in an isotonic phosphate buffer, and d-α-tocotrienol and d-γ-tocotrienol produced in the reaction solution at 37° C. with time were measured by high performance liquid chromatography (HPLC).
(§2) As Comparative Example, a hydrolysis test was performed on d-α-tocotrienolsuccinic acid ester (hereinafter, d-α-T3S) and d-γ-tocotrienolsuccinic acid ester (hereinafter, d-γ-T3S) similarly.
(§3) HPLC conditions: Column was CAPCELL PAK UG120, a mobile phase was methanol-acetonitrile (5:5 v/v), a rate was 0.7 ml/min, and detection was carried out by absorbance of 283 nm and fluorescent intensity (excitation 298 nm, fluorescent 325 nm).
(§4) Dynamic parameters of production of d-α-tocotrienol and d-γ-tocotrienol in a solution of rat liver microsome and rat plasma according to Micaelis-Menten model are shown in Tables 4 and 5.

[4] = Hydrolyzability test in rat plasma solution; assay type: in vitro ADME; conditions: 37° C., production of tocotrienol, Michaelis-Menten model
Description: as §1, §2, §3, §4

[5] = Test Examples 2 and 3: S-γ-CEHC kinetics in plasma after intravenous administration to rat; assay type: in vivo, SD rat
Description: A SD male rat, 7 weeks old, was used. A solution of γ-T3DMA to be administered was prepared into a d-γ-tocotrienol equivalent 25 mg/ml aqueous solution. The solution was administered intravenously into left femoram vein under slight ether anesthesia, blood was taken from external jugular vein with an injector for tuberculin treated with heparin with time, and plasma was taken after centrifugation. Plasma was stored at −80° C. till HPLC measurement. A γ-CEHC level in plasma was measured by the HPLC method which can fractionally quantitate optical isomers S-γ-CEHC and R-γ-CEHC (Hattori A., Fukushima T., Imai K., Anal. Biochem., 281, 209-215 (2000)). […] R-γ-CEHC was not detected in plasma after administration and only S-γ-CEHC was detected therein. […] Here, a S-γ-CEHC level after administration of racemic γ-CEHC is a value at racemic γ-CEHC 1 mg/kg. […] S-γ-CEHC in plasma was rapidly elevated after administration of γ-T3DMA and reached Cmax 1 hour after administration. […] Mean Retention Time (MRT) of a γ-T3DMA administered group is 6.64 hr and is an about 7-fold value as compared with MRT 1.00 hr of a racemic γ-CEHC administered group. From the foregoing, it can be understood that γ-T3DMA can enhance the S-γ-CEHC level in the living body and, further, can maintain the S-γ-CEHC level continuously for longer period of time.
The pharmacokinetics parameter represents an average of four animals and standard deviation. A dose is γ-T3 equivalent 25 mg/kg. F(%) was obtained by the following equation: […]
a Obtained by the Following Equation [formula]
wherein AUCS-γ-CEHC,γ-T3DM^Plasma and AUCS-γ-CEHC,racemicγ-CEHC^Plasma means AUC of S-γ-CEHC after administration of γ-T3DMA and racemic γ-CEHC, respectively, and Dγ-T3DMA and Dracemic γ-CEHC means a dose of γ-T3DMA and racemic γ-CEHC, respectively.
b Obtained by the Following Equation [formula]
wherein AUCS-γ-CEHC,γ-TDMA^Plasma means AUC of S-γ-CEHC after administration of γ-TDMA, and Dγ-TDMA means a dose of γ-TDMA.
γ-CEHC kinetics in plasma was studied by administering an aqueous γ-TDMA solution into rat's vein according to the same test procedure as those of Test Example 2. The γ-CEHC in plasma was all S-γ-CEHC and R-γ-CEHC was not detected. […] A level in plasma was rapidly elevated after administration, reached Cmax after 1 hr, and a S-γ-CEHC level was elevated clearly. […] Thus, it was shown that a level of S-γ-CEHC in the living body is efficiently elevated. Mean Retention Time (MRT) of a γ-TDMA administered group was 8.19 hr and was about 8-fold value as compared to MRT 1.00 hr of a racemic γ-CEHC administered group.

Water-solubility test = conditions: 0.250 mmol in 5 ml distilled water, stirred at 20° C. for 24 hours, HPLC
[6] = liver microsome, 37° C., production of tocotrienol, Michaelis-Menten model
[7] = liver microsome, 37° C., production of tocotrienol, Michaelis-Menten model, read-out: Km

SMILES	Km [3] [µM]	Vmax/Km [3] [min⁻¹]	Vmax [3, 6] [M/min]	Km [4] [µM]	Vmax [4] [M/min]	also measured
Cc1c(O)cc2c(c1C)O[C@@](C)(CCC(=O)O)CC2 [R-γ-CEHC]	–	–	–	–	–	biological half-life in plasma [1]: about 1 hour
Cc1c(O)cc2c(c1C)OC(C)(CCC(=O)O)CC2 (stereo not shown) [S-γ-CEHC]	–	–	–	–	–	biological half-life in plasma [1]: ≤ 2 minutes
CC(C)=CCC/C(C)=C/CC/C(C)=C/CC[C@]1(C)CCc2c(C)c(OC(=O)CN(C)C)c(C)c(C)c2O1.Cl [d-α-T3DMA, d-α-tocotrienol N,N-dimethylaminoacetate hydrochloride]	5970	0.02455	0.0001465	793	9.187e-08	bioavailability of d-α-T3 in liver [2]: 130%
CNCC(=O)Oc1c(C)c(C)c2c(c1C)CC[C@@](C)(CC/C=C(\C)CC/C=C(\C)CCC=C(C)C)O2.Cl [d-α-T3MA, d-α-tocotrienol N-methylaminoacetate hydrochloride]	109	0.01111	1.878e-06	1550	5.808e-07	–
CC(C)=CCC/C(C)=C/CC/C(C)=C/CC[C@]1(C)CCc2c(C)c(OC(=O)CCC(=O)O)c(C)c(C)c2O1 [d-α-T3S, d-α-tocotrienolsuccinic acid ester, reference compound]	30.3	0.001846	5.588e-08	506	4.946e-08	–
CC(C)=CCC/C(C)=C/CC/C(C)=C/CC[C@]1(C)CCc2cc(OC(=O)CN)c(C)c(C)c2O1.Cl [d-γ-T3AA, d-γ-tocotrienol aminoacetate hydrochloride]	–	–	7.716e-05	5510	3.594e-05	Km [3, 7]: 1560 µM
CC(C)=CCC/C(C)=C/CC/C(C)=C/CC[C@]1(C)CCc2cc(OC(=O)CN(C)C)c(C)c(C)c2O1.Cl [d-γ-T3DMA, d-γ-tocotrienol N,N-dimethylaminoacetate hydrochloride]	–	–	0.000323	786	7.592e-06	Km [3, 7]: 5580 µM; R-γ-CEHC in plasma after administration ([5]; intravenous, HPLC separating optical isomers): not detected; MRT as fold of MRT of racemic γ-CEHC administered group ([5]; intravenous, S-γ-CEHC in plasma): about 7 fold
CNCC(=O)Oc1cc2c(c(C)c1C)O[C@](C)(CC/C=C(\C)CC/C=C(\C)CCC=C(C)C)CC2.Cl [d-γ-T3MA, d-γ-tocotrienol N-methylaminoacetate hydrochloride]	–	–	0.0001204	12700	5.178e-05	Km [3, 7]: 2100 µM
CC(C)=CCC/C(C)=C/CC/C(C)=C/CC[C@]1(C)CCc2cc(OC(=O)CCC(=O)O)c(C)c(C)c2O1 [d-γ-T3S, d-γ-tocotrienolsuccinic acid ester, reference compound]	22.1	0.03244	7.161e-07	1050	1.945e-06	–
CC(C)=CCC/C(C)=C/CC/C(C)=C/CC[C@]1(C)CCc2cc(O)c(C)c(C)c2O1 [d-γ-tocotrienol]	–	–	–	–	–	solubility in distilled water (Water-solubility test): below detection limit of HPLC
Cc1c(OC(=O)CN(C)C)cc2c(c1C)O[C@](C)(CCC[C@H](C)CCC[C@H](C)CCCC(C)C)CC2.Cl [γ-TDMA, d-γ-tocopheryl N,N-dimethylaminoacetate hydrochloride]	–	–	–	–	–	MRT as fold of MRT of racemic γ-CEHC administered group ([5]; in vivo, iv): about 8 fold; R-γ-CEHC in plasma after administration ([5]; in vivo, iv): not detected
